According to US6924145B1, “Selection method” (Danisco A/S, priority 1998, dated 2005):

What was measured:
immature wheat embryos = assay: Toxicity of galactose to immature wheat embryos (germination and shoot growth); format: cell-based, Triticum aestivum; settings: 20 g/l sucrose, relative to control medium (no galactose) = 100
Protocol: In order to be useful for selection, the selective component (otherwise called selective agent) should not be able to sustain significant growth and preferably have adverse/toxic effects to the non-transformed cells/tissues. To assess the applicability of galactose selection following transformation, a number of plant species representing a range of different botanical families were tested for sensitivity to galactose, using explants which may be suitable for transformation experiments. As an example of a monocotyledonous species, wheat was studied. Immature wheat embryos (2-3 weeks old, a total of 161) were carefully removed from the seed and were cultivated on Gamborg B5 medium (Gamborg et al. 1968. Exp. Cell Res. 50: 151-158) supplemented with 9.0 g/l Bacto agar. 20 g/l sucrose and galactose according to the experiment. The embryos were cultivated in the dark for about 10 days where germinated embryos were transferred to fresh medium of the same composition and cultivated in a 16 h/8 h day/night regime for 4-5 weeks. The effect of galactose was evaluated by the number of germinated embryos and by measuring the length of the leaf on these embryos, relative to the control medium (no galactose).

sunflower explants = assay: Toxicity of galactose to sunflower apical explants (fresh weight); format: cell-based, Helianthus annuus; settings: 20 g/l sucrose, 4-5 weeks, above controls on medium devoid of carbohydrate
Protocol: (§1) In order to be useful for selection, the selective component (otherwise called selective agent) should not be able to sustain significant growth and preferably have adverse/toxic effects to the non-transformed cells/tissues. To assess the applicability of galactose selection following transformation, a number of plant species representing a range of different botanical families were tested for sensitivity to galactose, using explants which may be suitable for transformation experiments.
The preparation of apical explants useful for the transformation of sunflower were modified according to Knittel et al. (1994. Plant Cell Rep. 14: 81-86). The seed coats of 2 d old seedlings were gently removed and the cotyledons, the emerging root and the top of the apex were removed. The remaining part of the apex was cut off and divided into two halves and cultivated according to Knittel et al., with 20 g/l sucrose in the medium and galactose according to the experiment. After 4-5 weeks of culture at a 16 h/8 h day/night regime, growth was monitored by determining the fresh weight of the explants (above controls grown on a medium devoid of any carbohydrate source).

[1] = system: oil seed rape hypocotyl explants; assay: Toxicity of galactose to oil seed rape hypocotyl explants (shoot regeneration); format: cell-based, Brassica napus
Protocol: as §1
Hypocotyl explants useful for the transformation of oil seed rape were prepared using a protocol modified after Radke et al. (1988. Theor. Appl. Genet. 78: 161-168). Hypocotyls of 5 d old seedlings were cut into 1 cm segments and transferred to modified MS-medium (Murashige and Skoog 1962. Physiol. Plant. 15: 473-497) containing sucrose and galactose according to the experiment. After 3-4 weeks, shoots were harvested and the explants were transferred to fresh medium of the same composition. This was repeated for 3 more harvests and the total number of regenerated shoots formed on each medium was calculated (see table below).

potato leaf explants = assay: Toxicity of galactose to potato leaf explants (shoot regeneration); format: cell-based, Solanum tuberosum
Protocol: In order to be useful for selection, the selective component (otherwise called selective agent) should not be able to sustain significant growth and preferably have adverse/toxic effects to the non-transformed cells/tissues. To assess the applicability of galactose selection following transformation, a number of plant species representing a range of different botanical families were tested for sensitivity to galactose, using explants which may be suitable for transformation experiments. Young leaves useful for the transformation of potato were prepared from leaves of 28 d old in vitro shoot cultures. The leaves were cut off avoiding the meristem at the leaf corner and were cut twice across the […]. The explants were then put on modified MS-medium (Murashige and Skoog 1962. Physiol. Plant. 15: 473-497) containing various concentrations of sucrose and galactose. After 3 weeks, shoots were harvested and the explants were transferred to fresh medium of the same composition. This was repeated for 2 more harvests and the total number of explants with regenerated shoots formed on each medium was calculated (see table below).

[2] = system: sugar beet cotyledonary explants; assay: Toxicity of galactose to sugar beet cotyledonary explants; format: cell-based, Beta vulgaris; settings: 20 g/l sucrose and various concentrations galactose; 4-5 weeks
Protocol: In order to be useful for selection, the selective component (otherwise called selective agent) should not be able to sustain significant growth and preferably have adverse/toxic effects to the non-transformed cells/tissues. To assess the applicability of galactose selection following transformation, a number of plant species representing a range of different botanical families were tested for sensitivity to galactose, using explants which may be suitable for transformation experiments. Cotyledonary explants useful for the transformation of sugar beet were prepared by excising the cotyledons from […] seedlings (Joersbo er al. 1998. Mol. Breeding 4: 111-117). The leaves were transferred to modified MS-medium (Murashiee and Skoog 1962. Physiol. Plant. 15: 473-497) containing 20 g/l sucrose and various concentrations galactose.

pea hypocotyl explants = assay: Toxicity of galactose to pea hypocotyl explants; format: cell-based, Pisum sativum; settings: after 5 weeks; versus control medium with 20 g/l sucrose (no galactose)
Protocol: as §1, with “experiments. Hypocotyl explants useful for the transformation of pea were prepared by excising the hypocotyl from 7 d old seedlings and transferred to a medium, according to Nielsen er al. (1991. Physiol. Plant 82: 99-102), containing various concentrations of sucrose and galactose. After 5 weeks, the growth of the explants were evaluated.” for “experiments.”

Petunia = assay: Sensitivity of Petunia to galactose; format: cell-based
Protocol: as §1

[3] = system: potato explants transformed with pVIC-galT; assay: Selection of transgenic potato shoots (galT vector) on galactose containing media; format: cell-based, Solanum tuberosum; settings: for No. of transgenic shoots: GUS assay
Protocol: Young leaves useful for the transformation of potato were prepared from leaves of 28 d old in vitro shoot cultures. The leaves were cut off avoiding the meristem at the leaf corner and were cut twice across the midvein. The explants were inoculated for 30 min. with a suspension of Agrobacterium tumefaciens strain EHA101 (OD660=0.5) harbouring the transformation vector described above. After inoculation, the explants were dried carefully on filterpaper and left for co-cultivation for 3 d in dim light.
(§2) After co-culture, the explants were transferred to selection medium consisting of MS-medium (Murashige and Skoog 1962. Physiol. Plant. 15: 473-497) supplemented with 500 mg/l carbenicillin and various concentrations of sucrose and galactose. After 3 and 6 weeks, shoots were harvested and transgenicity was evaluated by subjecting the harvested shoots to the assay for β-glucuronidase activity (Jefferson et al. 1987. Plant Mol. Biol. Rep. 5: 387-405), a marker enzyme encoded by a gene placed adjacent the selective gene on the T-DNA of the transformation vector (FIG. 4).

[4] = system: oil seed rape hypocotyl explants inoculated with Agrobacterium tumefaciens EHA101; assay: Selection of transgenic oil seed rape on galactose containing media; format: cell-based, Brassica napus; settings: galactose 2.5 g/l, sucrose 10 g/l
Protocol: Hypocotyl explants of oil seed rape were prepared using a protocol modified according to Radke et al. (1988. Theor. Appl. Genet. 78: 161-168). Hypocotyls of 5 d old seedlings were cut into 1 cm segments and inoculated with a suspension of Agrobacterium tumefaciens strain EHA101 (OD660=0.1-0.5, prepared according to standard procedures). After inoculation, the explants were dried carefully on filterpaper before co-cultivation.
as §2, with “consisting of modified MS-medium (Murashige” for “consisting of MS-medium (Murashige”, “galactose. After 7-8 weeks, shoots” for “galactose. After 3 and 6 weeks, shoots”, “vector (FIG. 3).” for “vector (FIG. 4).”

tissues of maize = settings: Roberts et al.; cited from earlier work
tissues of barley = settings: Roberts et al.; cited from earlier work
[5] = 2.5 g/l galactose, sucrose 0 g/l
[6] = 2.5 g/l galactose, sucrose 5.0 g/l
[7] = 2.5 g/l galactose, sucrose 10 g/l
[8] = 2.5 g/l galactose, sucrose 20 g/l
[9] = 5.0 g/l galactose, sucrose 0 g/l
[10] = 5.0 g/l galactose, sucrose 5.0 g/l
[11] = 5.0 g/l galactose, sucrose 10 g/l
[12] = 5.0 g/l galactose, sucrose 20 g/l
[13] = galactose 1.25 g/l, sucrose 10 g/l
[14] = galactose 1.25 g/l, sucrose 15 g/l
[15] = galactose 1.25 g/l, sucrose 20 g/l
[16] = galactose 2.5 g/l, sucrose 10 g/l
[17] = galactose 2.5 g/l, sucrose 15 g/l
[18] = galactose 2.5 g/l, sucrose 20 g/l

Structure (SMILES): OC[C@H]1OC(O)[C@H](O)[C@@H](O)[C@H]1O (mixture of isomers) [galactose]
- Average shoot length (immature wheat embryos; galactose 2.5 g/l): 89
- Germination of embryos (immature wheat embryos; galactose 2.5 g/l): 43
- Average shoot length (immature wheat embryos; galactose 5.0 g/l): 67
- Germination of embryos (immature wheat embryos; galactose 5.0 g/l): 29
- Average shoot length (immature wheat embryos; galactose 7.5 g/l): 0
- Germination of embryos (immature wheat embryos; galactose 7.5 g/l): 0
- Average shoot length (immature wheat embryos; galactose 10 g/l): 33
- Germination of embryos (immature wheat embryos; galactose 10 g/l): 14
- Average shoot length (immature wheat embryos; galactose 15 g/l): 0
- Germination of embryos (immature wheat embryos; galactose 15 g/l): 0
- Fresh weight (sunflower explants; galactose 5.0 g/l): 28 mg/explant
- Fresh weight (sunflower explants; galactose 7.5 g/l): 0 mg/explant
- Fresh weight (sunflower explants; galactose 10 g/l): 0 mg/explant
- Fresh weight (sunflower explants; galactose 15 g/l): 0 mg/explant
- total number of regenerated shoots [1, 5]: 0
- total number of regenerated shoots [1, 6]: 1
- total number of regenerated shoots [1, 7]: 7
- total number of regenerated shoots [1, 8]: 26
- total number of regenerated shoots [1, 9]: 0
- total number of regenerated shoots [1, 10]: 0
- total number of regenerated shoots [1, 11]: 3
- total number of regenerated shoots [1, 12]: 22
- total number of explants with regenerated shoots (potato leaf explants; [5]): 1
- total number of explants with regenerated shoots (potato leaf explants; [6]): 0
- total number of explants with regenerated shoots (potato leaf explants; [7]): 0
- total number of explants with regenerated shoots (potato leaf explants; [8]): 7
- total number of explants with regenerated shoots (potato leaf explants; [9]): 0
- total number of explants with regenerated shoots (potato leaf explants; [10]): 0
- total number of explants with regenerated shoots (potato leaf explants; [11]): 0
- total number of explants with regenerated shoots (potato leaf explants; [12]): 0
- fresh weight of the explants [2]: significant reduction
- number of shoots [2]: significant reduction
- growth of the explants (pea hypocotyl explants): unable to sustain any growth
- sensitivity to galactose (level of toxicity) (Petunia): fairly tolerant
- ability of galactose to sustain growth (Petunia; stated for all tested plant species incl. Petunia): unable to sustain growth
- Transformation frequency (%) [3, 13]: 6.0%
- No. of transgenic shoots [3, 13]: 3
- Transformation frequency (%) [3, 14]: 14.0%
- No. of transgenic shoots [3, 14]: 7
- Transformation frequency (%) [3, 15]: 6.0%
- No. of transgenic shoots [3, 15]: 3
- Transformation frequency (%) [3, 16]: 2.0%
- No. of transgenic shoots [3, 16]: 1
- Transformation frequency (%) [3, 17]: 0%
- No. of transgenic shoots [3, 17]: 0
- Transformation frequency (%) [3, 18]: 8.0%
- No. of transgenic shoots [3, 18]: 4
- Transformation frequency (%) [4]: 1.0%
- No. of transgenic shoots ([4]; shoots more than 50% β-glucuronidase-positive, 7-8 weeks): 4
- toxicity to tissues of maize (tissues of maize): toxic
- toxicity to tissues of barley (tissues of barley): toxic
